The record followed here is PubChem BioAssay (NCI).

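96-well plates; 48 h exposure; 5 concentrations. Endpoints by linear interpolation between flanking doses. Not reached: highest tested concentration assigned. The concentration for 50% growth inhibition is given as GI50. At the TGI there is no net growth.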

Among the test systems are OVCAR-8 ovarian; HL-60(TB) leukemia; HOP-62 NSCLC; P388/ADR leukemia; SN12C renal; HOP-92 NSCLC; SF-268 CNS; DMS 273 small cell lung; DLD-1 colon; NCI/ADR-RES ovarian; KM20L2 colon; XF 498 CNS; TK-10 renal; HCC-2998 colon.
Common to all, as to assay: NCI tumour cell line growth inhibition, 48 h

In the case of `Oc1c(Br)cc2c(c1Br)-c1c(c(O)c3c4c1=NCCC=4C=N3)NCC2`, the TGI in the assay with OVCAR-8 ovarian was 28.5 µM; in the assay on HL-60(TB) leukemia, 16.9 µM; with HOP-62 NSCLC, more than 66.3 µM; with P388/ADR leukemia it was 43.2 µM; in the assay on SN12C renal, 29.3 µM; in the assay with HOP-92 NSCLC, 35.4 µM. For the same compound, the TGI was 23.2 µM with SF-268 CNS; 27.7 µM in the assay with DMS 273 small cell lung; 25 µM with DLD-1 colon; 34.3 µM in the assay on NCI/ADR-RES ovarian; 18.7 µM in the assay on KM20L2 colon; 27.2 µM in the assay on XF 498 CNS.
In the case of `N#C[S-].[La+3].c1ccc(-c2ccccn2)nc1.c1ccc(-c2ccccn2)nc1.c1ccc(-c2ccccn2)nc1`, the GI50 is 25.9 µM in the assay with OVCAR-8 ovarian; 19.2 µM with SN12C renal; 15.7 µM in the assay with TK-10 renal; 19.1 µM with DMS 273 small cell lung; 17.2 µM in the assay with DLD-1 colon; 17.4 µM with HCC-2998 colon. Moreover, the TGI with OVCAR-8 ovarian was more than 100 µM; in the assay on SN12C renal, more than 100 µM; with TK-10 renal it was more than 100 µM; in the assay with DMS 273 small cell lung, 88.5 µM; in the assay with DLD-1 colon it was more than 100 µM; in the assay on HCC-2998 colon, more than 100 µM.
As to `Brc1ccc2[nH]c3c(C4=NCCC4)nccc3c2c1`, the TGI in the assay on OVCAR-8 ovarian is more than 100 µM; with HL-60(TB) leukemia it was 18.6 µM; with HOP-62 NSCLC it was more than 42.2 µM; with P388/ADR leukemia it was more than 23.8 µM; in the assay on SN12C renal, more than 91.6 µM; with HOP-92 NSCLC, more than 74.2 µM. The TGI with SF-268 CNS was more than 70.4 µM; in the assay on DMS 273 small cell lung it was more than 76 µM; in the assay with DLD-1 colon, more than 43.4 µM; in the assay with NCI/ADR-RES ovarian it was more than 100 µM; in the assay on KM20L2 colon it was 23.3 µM; in the assay with HCC-2998 colon, 39.1 µM. The compound further returned a TGI in the assay on XF 498 CNS of more than 72.2 µM.
As for `Clc1cc(N/N=C(\c2ccccc2)c2ccccn2)ncn1`, the TGI was 0.665 µM in the assay with HOP-62 NSCLC; more than 100 µM in the assay with HOP-92 NSCLC; more than 100 µM in the assay on SF-268 CNS; more than 100 µM in the assay on TK-10 renal; more than 100 µM in the assay with HCC-2998 colon.
Take `Cc1c2cc[n+](Cc3ccc(I)cc3)cc2c(C)c2c1[nH]c1ccccc12`: the TGI in the assay with OVCAR-8 ovarian is 11.8 µM; in the assay on HL-60(TB) leukemia it was 1.11 µM; in the assay on HOP-62 NSCLC it was more than 21.7 µM; in the assay on P388/ADR leukemia, more than 25 µM; in the assay on SN12C renal it was more than 25 µM; in the assay on HOP-92 NSCLC, 3.3 µM. Also, the TGI in the assay with SF-268 CNS was 7.18 µM; with DMS 273 small cell lung, 6.17 µM; in the assay with DLD-1 colon it was more than 25 µM; in the assay with NCI/ADR-RES ovarian it was more than 25 µM; in the assay with KM20L2 colon, more than 15.4 µM; in the assay on HCC-2998 colon, 5.25 µM. This compound also displayed a TGI in the assay on XF 498 CNS of 1.17 µM.
Consider `O=c1cc(-c2cccc(OC(F)(F)F)c2)[nH]c2ccc(N3CCCC3)cc12`, for which the TGI was less than 0.0001 µM in the assay with HL-60(TB) leukemia; 55.9 µM in the assay on SN12C renal; more than 100 µM in the assay with HOP-92 NSCLC; 19.1 µM in the assay on SF-268 CNS; 6.79 µM with TK-10 renal; 0.000673 µM in the assay with NCI/ADR-RES ovarian. Also, the TGI in the assay on HCC-2998 colon amounted to 0.011 µM. In the assay with TK-10 renal, the GI50 was 0.0431 µM.
